How the values were obtained:
Rattus norvegicus [1] = organism: Rattus norvegicus; test: Inhibition of ADP-induced platelet aggregation in rat platelet rich plasma; format: functional, organism-based
Homo sapiens = organism: Homo sapiens; test: Inhibition of ADP-induced platelet aggregation in human platelet rich plasma; format: functional, organism-based
[2] = Intrinsic clearance in rat liver microsomes after 60 mins; format: ADME, Microsome
[3] = Cmax in rat at 10 mg/kg, po; format: ADME, organism-based; set-up: dose 10 mg/kg, route oral; details: in vivo
[4] = Beta half life in rat at 10 mg/kg, iv; format: ADME, organism-based; set-up: dose 10 mg/kg, route intravenous; details: in vivo
[5] = Total clearance in rat at 10 mg/kg, iv; format: ADME, organism-based; set-up: dose 10 mg/kg, route intravenous; details: in vivo
[6] = Bioavailability in rat at 10 mg/kg, […]; format: ADME, organism-based; details: in vivo
Rattus norvegicus [7] = test: AUC in rat at 10 mg/kg, po; format: ADME, organism-based, Plasma; set-up: dose 10 mg/kg, route oral; details: in vivo
Rattus norvegicus [8] = test: Stability in orally dosed rat measured as M2 level in bile; format: ADME, organism-based; details: in vivo, po
Rattus norvegicus [9] = test: Stability in orally dosed rat measured as glucuronide of M2 level in bile; format: ADME, organism-based; details: in vivo, po
[10] = Cmax in human at 12.5 ug, po; format: ADME, organism-based; set-up: dose 12.5 ug, route oral; details: in vivo
[11] = AUC in human at 12.5 ug, po; format: ADME, organism-based; details: plasma
[12] = Half life in human at 12.5 ug, po; format: ADME, organism-based; details: in vivo
[13] = Bioavailability in human at 12.5 ug, po; format: ADME, organism-based; details: in vivo
[14] = Blood to plasma ratio in human at 12.5 ug, po; format: ADME, organism-based; details: read-out: BPR

| SMILES | IC50 (Rattus norvegicus [1]) [nM] | IC50 (Homo sapiens) [nM] | CLint scaled [2] [mL/min/kg] | other results |
| --- | --- | --- | --- | --- |
| O=C(O)COc1cccc2c1C(O)C[C@](O)(COC(=O)N(c1ccccc1)c1ccccc1)C2 (stereo partly drawn) | > 10000 | 198 | – | – |
| O=C(O)COc1cccc2c1CC[C@](O)(COC(=O)N(c1ccccc1)c1ccc(Br)cc1)C2 | 6490 | 49 | 12.3 | – |
| O=C(O)COc1cccc2c1CC[C@](O)(COC(=O)N(c1ccc(F)cc1)c1ccc(F)cc1)C2 | > 10000 | 59 | 4.6 | Cmax [3]: 575 ng/mL; half-life [4]: 3 h; clearance [5]: 30.3 mL/min/kg; bioavailability [6]: 29.5%; AUC (Rattus norvegicus [7]): 1610 ng·h/mL |
| O=C(O)COc1cccc2c1CC[C@](O)(COC(=O)N(c1ccccc1F)c1ccccc1F)C2 | – | 63 | 44.8 | – |
| O=C(O)COc1cccc2c1CC[C@](O)(COC(=O)N(c1ccccc1)c1ccccc1)[C@H]2O | > 10000 | 1290 | – | – |

Compounds with a lower IC50 (Homo sapiens), results first:

| IC50 (Rattus norvegicus [1]) [nM] | IC50 (Homo sapiens) [nM] | CLint scaled [2] [mL/min/kg] | SMILES | other results |
| --- | --- | --- | --- | --- |
| 5110 | 22 | 11.8 | O=C(O)COc1cccc2c1CC[C@](O)(COC(=O)N(c1ccc(F)cc1)c1ccccc1F)C2 | – |
| > 10000 | 14 | 13.5 | O=C(O)COc1cccc2c1CC[C@](O)(COC(=O)N(c1cccc(F)c1)c1cccc(F)c1)C2 | – |
| 2490 | 35 | – | O=C(O)COc1cccc2c1CC[C@](O)(COC(=O)N(c1ccccc1)c1ccc(O)cc1)C2 | Stability (Rattus norvegicus [8]): 12%; Stability (Rattus norvegicus [9]): 33% |
| 4580 | 13 | 10.3 | O=C(O)COc1cccc2c1CC[C@](O)(COC(=O)N(c1ccccc1)c1ccc(F)cc1)C2 | Cmax [3]: 434 ng/mL; half-life [4]: 1.6 h; clearance [5]: 32.9 mL/min/kg; bioavailability [6]: 19.2%; AUC (Rattus norvegicus [7]): 961 ng·h/mL |
| – | 18 | 31.9 | O=C(O)COc1cccc2c1CC[C@](O)(COC(=O)N(c1ccccc1)c1ccccc1)C2 | Cmax [10]: 0.157 ng/mL; AUC [11]: 0.327 ng·h/mL; half-life [12]: 1.5 h; bioavailability [13]: 55%; Cmax [3]: 282 ng/mL; bioavailability [6]: 9.6%; AUC (Rattus norvegicus [7]): 601 ng·h/mL; blood plasma ratio [14]: 0.57 |
| > 10000 | 25 | 11.7 | O=C(O)COc1cccc2c1CC[C@](O)(COC(=O)N(c1ccc(F)cc1)c1cccc(F)c1)C2 | – |

Reference: ChEMBL document CHEMBL1146874, “Metabolism investigation leading to novel drug design 2: orally active prostacyclin mimetics. Part 5” (Bioorg Med Chem Lett, 2006)
